Consider six molecules from patent US20240174618A1, “SUBSTITUTED (2-HETEROARYLOXYPHENYL)SULFONATES, SALTS THEREOF AND THEIR USE AS HERBICIDAL AGENTS” (Bayer Aktiengesellschaft, priority 2021, published 2024).

Format in all cases: in vivo
The test system of data set [1] is Lolium rigidum (LOLRI). In words: C. Herbicidal pre-emergence efficacy, LOLRI. The settings on record: scored after about 3 weeks. Put shortly: (§1)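 Pre-emergence test: formulated compounds sprayed as aqueous suspension or emulsion with 0.5% additive at 600 l/ha onto soil covering sown seeds, at rates corresponding to 320 g/ha or less. After about 3 weeks in greenhouse, efficacy scored visually as percent versus untreated controls (100% = plants dead).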

In data set [2] the test system is Digitaria sanguinalis (DIGSA). In words: A. Herbicidal pre-emergence efficacy, DIGSA. The note with it: scored visually after about 3 weeks vs untreated controls. Put shortly: (§2)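 Pre-emergence soil-surface spray in sandy loam pots, WP/EC in water plus 0.5% additive, 600 L/ha. Visual % damage rating after about 3 weeks in greenhouse vs. untreated; 0% = control-like, 100% = dead plants. Rates up to 1280 g/ha.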

The test system of data set [3] is Kochia scoparia (KCHSC). In words: A. Herbicidal pre-emergence efficacy, KCHSC. Put shortly:
as §2

Data set [4] has as its system Kochia scoparia (KCHSC). In words: C. Herbicidal pre-emergence efficacy, KCHSC. In short, it runs like this:
as §1

For data set [5], the system named is Lolium rigidum (LOLRI). In words: A. Herbicidal pre-emergence efficacy, LOLRI. In short, it runs like this: as §2
In data set [6] the test system is Triticum aestivum (TRZAS). In words: F. Post-emergence effect on useful plants, TRZAS. The note with it: useful plant. Put shortly:
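Crop plants grown in sandy loam in the greenhouse were sprayed at the one-leaf stage, 2-3 weeks after sowing, with WP or EC formulations plus 0.5% additive at 600 l/ha water. Damage was scored visually after about 3 weeks against untreated controls (0% = like control, 100% = dead).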

In data set [7] the test system is Polygonum convolvulus (POLCO). In words: C. Herbicidal pre-emergence efficacy, POLCO. The settings on record: scored after about 3 weeks. Put shortly: as §1
Data set [8] concerns Abutilon theophrasti (ABUTH). In words: E. Herbicidal post-emergence efficacy, ABUTH. Put shortly:
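Greenhouse weeds were treated post-emergence at the one-leaf stage, 2-3 weeks after sowing in sandy loam, with WP or EC formulations sprayed as aqueous suspension/emulsion plus 0.5% additive at 600 l/ha, at 320 g/ha or less. Efficacy was rated visually after about 3 weeks versus untreated controls (100% = dead, 0% = like control).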

For another data set, the system named is Veronica persica (VERPE). Kind of data set: C. Herbicidal pre-emergence efficacy, VERPE. The note with it: scored after about 3 weeks. Put shortly:
as §1

Setting [9] is: pre-emergence, dosage 1280 g/ha.
[10] abbreviates: 80 g/ha, scored visually after about 3 weeks vs untreated controls.

Take `Cc1cccc(Oc2ncc(F)cn2)c1OS(=O)(=O)CCC(F)(F)F` [Example I-45]: the figures for the “Pre-emergence efficacy against LOLRI” value in the data set on Lolium rigidum (LOLRI) [1] (320 g/ha), in the data set with Lolium rigidum (LOLRI) [5] (dosage 320 g/ha) and in the data set on Lolium rigidum (LOLRI) [5] (dosage 1280 g/ha) were 90%, 100% and 100%, respectively. In addition, the “Pre-emergence efficacy against DIGSA” value in data set [2] (80 g/ha) stood at 90%; in [2] (320 g/ha), 100%; in data set [2] (1280 g/ha), 100%. In addition, the “Pre-emergence efficacy against KCHSC” value in the data set on Kochia scoparia (KCHSC) [3] (pre-emergence, dosage 320 g/ha) is recorded as 100%; in the data set with Kochia scoparia (KCHSC) [3] (setting [9]), 100%. The results for the “Pre-emergence efficacy against KCHSC in %” value in the data set with Kochia scoparia (KCHSC) [4] (application rate 80 g/ha) and in the data set with Kochia scoparia (KCHSC) [4] (application rate 320 g/ha) were 90% and 100%, respectively. In addition, the “Post-emergence efficacy against TRZAS in %” value in data set [6] (application rate 80 g/ha) and in data set [6] (application rate 320 g/ha) was 0% each time. The “Pre-emergence efficacy against POLCO” value in [7] (80 g/ha) and in data set [7] (320 g/ha) was 100% in each case.

For the molecule `O=S(=O)(CCCC(F)(F)F)Oc1c(F)cccc1Oc1ncc(Cl)cn1` [Example I-49], the “Pre-emergence efficacy against LOLRI” value is 80% in the data set on Lolium rigidum (LOLRI) [1] (80 g/ha), 90% with Lolium rigidum (LOLRI) [1] (320 g/ha), 90% in the data set with Lolium rigidum (LOLRI) [5] (dosage 320 g/ha) and 90% with Lolium rigidum (LOLRI) [5] (dosage 1280 g/ha). Also, the “Pre-emergence efficacy against DIGSA” value in data set [2] (80 g/ha), in data set [2] (320 g/ha) and in data set [2] (1280 g/ha) was 90% in each case. In addition, the “Pre-emergence efficacy against KCHSC” value is 100% with Kochia scoparia (KCHSC) [3] (setting [10]); 100% with Kochia scoparia (KCHSC) [3] (pre-emergence, dosage 320 g/ha); 100% with Kochia scoparia (KCHSC) [3] (setting [9]). In addition, the “Pre-emergence efficacy against KCHSC in %” value in the data set with Kochia scoparia (KCHSC) [4] (application rate 80 g/ha) and in the data set on Kochia scoparia (KCHSC) [4] (application rate 320 g/ha) was 100% each time. Also, the “Post-emergence efficacy against TRZAS in %” value in data set [6] (application rate 80 g/ha) was 20%. The “Post-emergence efficacy against ABUTH in %” value in [8] (application rate 80 g/ha) and in [8] (application rate 320 g/ha) was 80% in each case. Besides, the “Pre-emergence efficacy against POLCO” value in data set [7] (80 g/ha) and in [7] (320 g/ha) was 100% throughout.

Regarding `N#Cc1cccc(Oc2ncc(Cl)cn2)c1OS(=O)(=O)CCCC(F)(F)F` [Example I-81], the “Pre-emergence efficacy against LOLRI” value in the data set with Lolium rigidum (LOLRI) [1] (320 g/ha) amounted to 90%. For the same molecule, the “Pre-emergence efficacy against KCHSC in %” value in the data set on Kochia scoparia (KCHSC) [4] (application rate 80 g/ha) and with Kochia scoparia (KCHSC) [4] (application rate 320 g/ha) was 100% each time. In addition, the “Post-emergence efficacy against TRZAS in %” value in [6] (application rate 80 g/ha) stood at 0%. The “Pre-emergence efficacy against VERPE” value with Veronica persica (VERPE) (80 g/ha) and with Veronica persica (VERPE) (320 g/ha) was 100% throughout. Further, the “Post-emergence efficacy against ABUTH in %” value in data set [8] (application rate 80 g/ha) is recorded as 80%; in [8] (application rate 320 g/ha) it was 90%. The “Pre-emergence efficacy against POLCO” value in [7] (80 g/ha) was determined as 80%; in data set [7] (320 g/ha), 90%.

`COCCS(=O)(=O)Oc1c(F)cccc1Oc1ncc(Cl)cn1` [Example I-52]: the “Pre-emergence efficacy against LOLRI” value in the data set on Lolium rigidum (LOLRI) [1] (320 g/ha) is reported as 90%; in the data set with Lolium rigidum (LOLRI) [5] (dosage 1280 g/ha), 100%. Moreover, the “Pre-emergence efficacy against DIGSA” value in data set [2] (320 g/ha) is 90%; in [2] (1280 g/ha), 100%. Besides, the “Pre-emergence efficacy against KCHSC” value with Kochia scoparia (KCHSC) [3] (pre-emergence, dosage 320 g/ha) worked out at 90%; in the data set on Kochia scoparia (KCHSC) [3] (setting [9]), 100%. In addition, the “Pre-emergence efficacy against KCHSC in %” value in the data set on Kochia scoparia (KCHSC) [4] (application rate 80 g/ha) and in the data set on Kochia scoparia (KCHSC) [4] (application rate 320 g/ha) was 100% throughout. Also, the “Post-emergence efficacy against TRZAS in %” value in data set [6] (application rate 80 g/ha) and in data set [6] (application rate 320 g/ha) was 0% each time. Also, the “Pre-emergence efficacy against POLCO” value in data set [7] (80 g/ha) came out at 90%; in data set [7] (320 g/ha), 100%.

In the case of `O=S(=O)(CC1CC(F)(F)C1)Oc1c(F)cccc1Oc1ncc(Cl)cn1` [Example I-53], the “Pre-emergence efficacy against LOLRI” value in the data set on Lolium rigidum (LOLRI) [1] (320 g/ha) is 100%; in the data set with Lolium rigidum (LOLRI) [5] (dosage 320 g/ha) it was 90%; in the data set on Lolium rigidum (LOLRI) [5] (dosage 1280 g/ha), 100%. Further, the “Pre-emergence efficacy against DIGSA” value in [2] (80 g/ha), in data set [2] (320 g/ha) and in [2] (1280 g/ha) was 100% throughout. The “Pre-emergence efficacy against KCHSC” value with Kochia scoparia (KCHSC) [3] (setting [10]) was 100%; with Kochia scoparia (KCHSC) [3] (pre-emergence, dosage 320 g/ha) it was 100%; in the data set on Kochia scoparia (KCHSC) [3] (setting [9]) it was 100%. Moreover, the “Pre-emergence efficacy against KCHSC in %” value with Kochia scoparia (KCHSC) [4] (application rate 80 g/ha) and with Kochia scoparia (KCHSC) [4] (application rate 320 g/ha) was 100% throughout. Moreover, the “Pre-emergence efficacy against VERPE” value with Veronica persica (VERPE) (80 g/ha) and in the data set with Veronica persica (VERPE) (320 g/ha) was 100% each time. Also, the “Post-emergence efficacy against ABUTH in %” value in [8] (application rate 80 g/ha) and in data set [8] (application rate 320 g/ha) was 100% in each case. Moreover, the “Pre-emergence efficacy against POLCO” value in data set [7] (80 g/ha) and in [7] (320 g/ha) was 100% each time.

`O=S(=O)(CCC(F)(F)F)Oc1c(F)cccc1Oc1ncc(Cl)cn1` [Example I-48]: the “Pre-emergence efficacy against LOLRI” value in the data set on Lolium rigidum (LOLRI) [1] (80 g/ha) came to 90%; in the data set with Lolium rigidum (LOLRI) [1] (320 g/ha) it was 100%; in the data set with Lolium rigidum (LOLRI) [5] (dosage 320 g/ha), 90%; in the data set on Lolium rigidum (LOLRI) [5] (dosage 1280 g/ha), 90%. The “Pre-emergence efficacy against DIGSA” value in [2] (80 g/ha), in data set [2] (320 g/ha) and in data set [2] (1280 g/ha) was 100% in each case. Besides, the “Pre-emergence efficacy against KCHSC” value in the data set with Kochia scoparia (KCHSC) [3] (setting [10]) came out at 100%; in the data set with Kochia scoparia (KCHSC) [3] (pre-emergence, dosage 320 g/ha) it was 100%; with Kochia scoparia (KCHSC) [3] (setting [9]) it was 100%. Further, the “Pre-emergence efficacy against KCHSC in %” value in the data set on Kochia scoparia (KCHSC) [4] (application rate 80 g/ha) and in the data set on Kochia scoparia (KCHSC) [4] (application rate 320 g/ha) was 100% throughout. Also, in data set [6] (application rate 80 g/ha), the “Post-emergence efficacy against TRZAS in %” value was found to be 10%. Moreover, the “Post-emergence efficacy against ABUTH in %” value is on record as 90% in [8] (application rate 80 g/ha) and 100% in data set [8] (application rate 320 g/ha). Also, the “Pre-emergence efficacy against POLCO” value in data set [7] (80 g/ha) and in data set [7] (320 g/ha) was 100% in each case.
